What was measured:
[1] = target: Rabbit skeletal myosin; experiment: Skeletal muscle myosin II actin-activated ATPase assay; type: biochemical; conditions: 20 nM skeletal muscle myosin II; read-out: SKMMII KI
Source text: (§1) The cardiac muscle myosin II actin-activated ATPase assay is a biochemical assay. Specifically, it is an NADH (nicotinamide adenine dinucleotide)-coupled ATPase assay that relies on NADH fluorescence as a readout. Cardiac myosin is a mechanochemical energy transducer that hydrolyzes ATP to generate force in the presence of its activator, F-actin. The resulting ADP is regenerated to ATP by pyruvate kinase (PK) that transforms one molecule of phosphoenolpyruvate (PEP) to pyruvate in parallel. Subsequently, pyruvate is reduced to lactate by lactate dehydrogenase (LDH) that, in turn, oxidizes one molecule of NADH to NAD. Therefore, the decrease in NADH concentration as a function of time equals the ATP hydrolysis rate. Bovine cardiac myosin is obtained from a commercial source, Cytoskeleton. PK, LDH, ATP, PEP, and NADH are obtained from Sigma. F-actin is prepared in house from Rabbit Muscle Acetone Powder. The assay is run at 25° C. in 384 well black-wall polystyrene microplates with a total volume of 20 μl per well. NADH fluorescence is monitored for 30 minutes with an EnVision Multimode Plate Reader. The slope of the fluorescence response, which is proportional to the reaction rate, is determined by simple linear regression. Final assay conditions are 300 nM cardiac myosin, 10 μM actin, 40 U/ml LDH, 200 U/ml PK, 220 μM NADH, 1 mM PEP, 1 mM ATP in a buffer containing 10 mM 3-(N-morpholino)propanesulfonic acid (pH=7.0), 2 mM MgCl2, 0.15 mM ethylene glycol-bis(p-aminoethyl ether)-N,N,N′,N′-tetraacetic acid, 0.1 mg/mL bovine serum albumin, 0.5% (V/V) dimethyl sulfoxide (DMSO) and 1 mM dithiothreitol. Prior to testing the inhibitory activity of the compounds, a two-fold dilution series starting at 10 mM compound concentration is prepared in DMSO. Subsequently, 100 nl is transferred to each well of the measuring plate containing a mixture of myosin, LDH and PK. The enzymatic reaction is started with the addition of a mixture containing ATP, PEP, NADH and actin. The highest final compound concentration is 50 uM. 20 μM para-aminoblebbistatin in 0.5% DMSO serves as the positive control and 0.5% DMSO alone is the negative control. Reaction rates are determined by using the fluorescence responses of a dilution series of NADH included in all plates and plotted as a function of inhibitor concentration. All measurements are carried out in triplicate. Inhibitory constants are determined by fitting the 16 point dose-response data to a quadratic equation corresponding to a simple one-to-one binding model.
The skeletal muscle myosin II actin-activated ATPase assay is performed the same as for cardiac muscle myosin II with the following exceptions: Rabbit skeletal myosin is obtained from Cytoskeleton and the final assay conditions contain 20 nM skeletal muscle myosin II.

[2] = Photostability, percentage remaining undegraded under illumination or in the dark; conditions: for Photostability 4 hours: percentage remaining undegraded after 4 hours illumination; for Photostability 24 hours: percentage remaining undegraded after 24 hours illumination; for Photostability Dark (24 h): percentage remaining undegraded in the dark
[3] = target: Bovine cardiac myosin (Bos taurus (Bovine), UniProt Q9BE39); experiment: Cardiac muscle myosin II actin-activated ATPase assay (NADH-coupled); type: biochemical; design: key to Ratio CMMII:NMII Ki/EC50: NMII-sel: no Ki value for cardiac myosin II could be determined; the compounds had no detectable inhibitory properties versus the cardiac myosin II; conditions: for Ki: 300 nM cardiac myosin, 10 μM actin, 25° C., read-out: CMMII KI; for Ratio CMMII:NMII Ki/EC50: cardiac myosin II Ki over nonmuscle myosin II EC50
Source text: as §1

Chain of Bovine cardiac myosin (Q9BE39 whole entry): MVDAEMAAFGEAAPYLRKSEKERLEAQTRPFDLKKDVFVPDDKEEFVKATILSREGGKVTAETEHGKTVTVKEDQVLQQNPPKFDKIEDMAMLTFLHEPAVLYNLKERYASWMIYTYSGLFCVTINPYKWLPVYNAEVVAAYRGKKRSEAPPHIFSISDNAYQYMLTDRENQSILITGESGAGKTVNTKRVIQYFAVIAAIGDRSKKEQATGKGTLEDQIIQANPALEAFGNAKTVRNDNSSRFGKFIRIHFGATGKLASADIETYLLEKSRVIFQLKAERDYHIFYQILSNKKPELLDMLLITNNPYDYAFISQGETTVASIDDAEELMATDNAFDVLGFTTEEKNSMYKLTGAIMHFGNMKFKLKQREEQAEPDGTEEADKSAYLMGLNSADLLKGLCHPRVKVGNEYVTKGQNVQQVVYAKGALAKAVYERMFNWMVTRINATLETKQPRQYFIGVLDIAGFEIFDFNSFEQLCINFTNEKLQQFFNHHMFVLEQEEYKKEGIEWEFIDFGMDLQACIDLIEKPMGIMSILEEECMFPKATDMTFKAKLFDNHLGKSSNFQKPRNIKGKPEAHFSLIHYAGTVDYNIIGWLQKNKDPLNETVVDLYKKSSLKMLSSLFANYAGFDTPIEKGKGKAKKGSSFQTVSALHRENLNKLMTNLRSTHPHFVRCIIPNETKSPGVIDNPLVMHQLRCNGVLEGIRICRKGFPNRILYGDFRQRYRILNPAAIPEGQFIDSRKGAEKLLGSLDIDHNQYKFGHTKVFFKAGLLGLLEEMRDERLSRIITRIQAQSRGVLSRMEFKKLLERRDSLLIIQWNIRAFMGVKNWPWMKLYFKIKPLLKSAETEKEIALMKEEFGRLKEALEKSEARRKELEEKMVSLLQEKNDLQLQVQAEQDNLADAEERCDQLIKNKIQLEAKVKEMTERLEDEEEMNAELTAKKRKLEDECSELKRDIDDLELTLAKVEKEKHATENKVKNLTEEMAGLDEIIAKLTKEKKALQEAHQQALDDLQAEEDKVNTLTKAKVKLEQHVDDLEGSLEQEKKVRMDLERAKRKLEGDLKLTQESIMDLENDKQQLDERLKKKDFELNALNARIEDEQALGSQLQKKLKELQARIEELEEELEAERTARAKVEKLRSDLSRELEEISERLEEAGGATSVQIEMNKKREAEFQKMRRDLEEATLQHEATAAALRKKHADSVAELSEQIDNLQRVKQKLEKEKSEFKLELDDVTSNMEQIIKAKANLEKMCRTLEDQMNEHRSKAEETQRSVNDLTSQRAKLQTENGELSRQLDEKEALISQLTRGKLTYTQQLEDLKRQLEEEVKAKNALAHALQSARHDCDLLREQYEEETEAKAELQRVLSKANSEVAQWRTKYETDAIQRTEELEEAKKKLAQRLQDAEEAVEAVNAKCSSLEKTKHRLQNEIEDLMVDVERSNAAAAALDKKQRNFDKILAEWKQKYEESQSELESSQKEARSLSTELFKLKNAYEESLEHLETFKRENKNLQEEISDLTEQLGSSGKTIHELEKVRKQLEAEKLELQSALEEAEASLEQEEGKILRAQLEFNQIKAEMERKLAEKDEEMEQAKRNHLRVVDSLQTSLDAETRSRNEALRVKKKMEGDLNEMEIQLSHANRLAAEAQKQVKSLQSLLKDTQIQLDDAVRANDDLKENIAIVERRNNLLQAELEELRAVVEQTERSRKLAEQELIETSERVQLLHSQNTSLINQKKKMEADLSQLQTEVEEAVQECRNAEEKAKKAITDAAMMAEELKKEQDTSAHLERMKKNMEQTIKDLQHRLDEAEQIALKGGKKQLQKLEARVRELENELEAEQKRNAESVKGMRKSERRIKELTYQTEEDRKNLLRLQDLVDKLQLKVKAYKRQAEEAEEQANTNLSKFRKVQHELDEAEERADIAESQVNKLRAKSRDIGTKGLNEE
Chain of Bovine cardiac myosin (P85100 whole entry partner): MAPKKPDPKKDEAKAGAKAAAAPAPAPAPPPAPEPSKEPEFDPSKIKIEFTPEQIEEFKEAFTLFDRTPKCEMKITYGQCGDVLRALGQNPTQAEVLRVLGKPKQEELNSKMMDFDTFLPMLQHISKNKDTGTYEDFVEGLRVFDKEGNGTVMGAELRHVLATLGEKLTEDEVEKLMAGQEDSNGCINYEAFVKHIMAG
Chain of Bovine cardiac myosin (Q3SZE5 whole entry partner): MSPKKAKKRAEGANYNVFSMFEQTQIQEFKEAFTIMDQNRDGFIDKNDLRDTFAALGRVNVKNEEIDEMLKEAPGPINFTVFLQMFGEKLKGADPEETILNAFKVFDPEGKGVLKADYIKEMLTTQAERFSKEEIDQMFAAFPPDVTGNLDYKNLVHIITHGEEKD

| Structure (SMILES) | Ki [1] | Photostability 4 hours [2] | Photostability 24 hours [2] | Photostability Dark (24 h) [2] | Ki [3] | Ratio CMMII:NMII Ki/EC50 [3] |
| --- | --- | --- | --- | --- | --- | --- |
| COc1cccc(N2CC[C@@]3(O)C(=O)c4cc(C)ccc4N=C23)c1 [BPN-0025044] | 7 µM | 90.3% | 12.1% | >99% | 28 µM | 5.4 |
| O=C1c2cc(C(F)(F)F)ccc2N=C2N(c3ccccc3)CC[C@@]12O [BPN-0025110] | 8 µM | 6.6% | 2.6% | >99% | 22 µM | 6.9 |
| Cc1ccc2c(c1)C(=O)[C@]1(O)CCN(c3cccc(Br)c3)C1=N2 [BPN-0025240] | 35 µM | 93.0% | 28.6% | 94.7% | 400 µM | 39.2 |
| Cc1ccc2c(c1)C(=O)[C@]1(O)CCN(c3ccc(C)c(Cl)c3)C1=N2 [BPN-0025254] | 7.7 µM | 92.5% | 39.4% | >99% | – | NMII-sel |
| Cc1ccc2c(c1)C(=O)[C@]1(O)CCN(c3ccc(C)c(C)c3)C1=N2 [BPN-0025903] | 11 µM | 39.8% | 7.5% | 98.3% | – | NMII-sel |
| COc1cc(N2CC[C@@]3(O)C(=O)c4cc(C)ccc4N=C23)ccn1 [BPN-0025919] | 1.8 µM | – | – | – | 18 µM | 4.6 |
| Cc1ccc2c(c1)C(=O)[C@@]1(O)C(=N2)N(c2ccccc2)CC1(C)C [BPN-0026282] | – | 64.0% | 7.0% | >99% | – | NMII-sel |
| Cc1ccc2c(c1)C(=O)[C@]1(O)CCN(c3ccc4occc4c3)C1=N2 [BPN-0026283] | 5 µM | 39.4% | 10.8% | 92.0% | – | NMII-sel |
| Cc1ccc2c(c1)C(=O)[C@]1(O)CCN(c3ccc4ccoc4c3)C1=N2 [BPN-0026285] | 0.9 µM | 51.9% | 8.2% | 94.7% | 9.1 µM | 5.7 |
| Cc1ccc2c(c1)C(=O)[C@]1(O)CCN(c3ccc(C#N)c(C)c3)C1=N2 [BPN-0026324] | 3.5 µM | 98.5% | 90.4% | >99% | 30 µM | 13.6 |
| Cc1ccc2c(c1)C(=O)[C@]1(O)CCN(c3ccc(Cl)c(C)c3)C1=N2 [BPN-0026325] | 13 µM | 89.0% | 14.0% | 97.8% | – | NMII-sel |
| Cc1cc2c(cc1F)C(=O)[C@]1(O)CCN(c3ccccc3)C1=N2 [BPN-0026387] | 1.2 µM | 85.2% | 18.0% | 93.5% | 13 µM | 5.2 |
| COc1ccc(N2CC[C@@]3(O)C(=O)c4cc(C(F)(F)F)ccc4N=C23)cc1 [BPN-0026393] | 1.7 µM | 97.9% | 75.0% | >99% | 11 µM | 3.2 |
| Cc1ccc2c(c1)C(=O)[C@]1(O)CCN(c3ccc(C#N)c(Cl)c3)C1=N2 [BPN-0026394] | 4.8 µM | >99% | 98.7% | >99% | – | NMII-sel |
| O=C1c2cc(Cl)ccc2NC2N(c3ccc4ccoc4c3)CC[C@@]12O (some centres unmarked) [BPN-0026401] | 3.3 µM | 81.2% | 9.6% | 97.7% | 50 µM | 16.7 |
| Cc1ncc(N2CC[C@@]3(O)C(=O)c4cc(C(F)(F)F)ccc4N=C23)s1 [BPN-0026404] | 3.6 µM | – | – | – | 23 µM | 7.0 |
| Cn1cc(N2CC[C@@]3(O)C(=O)c4cc(C(F)(F)F)ccc4N=C23)cn1 [BPN-0026413] | 33 µM | 94.3% | 82.2% | 97.3% | 110 µM | 3.1 |
| Cc1cc(N2CC[C@@]3(O)C(=O)c4cc(Cl)ccc4N=C23)ccc1C#N [BPN-0026457] | 15 µM | 98.6% | 77.1% | >99% | – | NMII-sel |
| O=C1c2cc(C(F)(F)F)ccc2N=C2N(c3ccc4ccoc4c3)CC[C@@]12O [BPN-0026495] | 20 µM | 80.9% | 15.9% | 93.4% | – | NMII-sel |
| COc1cccc(N2CC[C@@]3(O)C(=O)c4cc(C)c(C)cc4N=C23)c1 [BPN-0026496] | 15 µM | 41.7% | 3.5% | 97.9% | 83 µM | 31.9 |
| COc1cccc(N2CC[C@@]3(O)C(=O)c4cc(C)c(C)cc4N=C23)c1 [BPN-0026497] | 9.8 µM | 82.7% | 6.1% | 97.5% | 33 µM | 15.7 |
| Cc1cc2c(cc1C)C(=O)[C@]1(O)CCN(c3ccc(C#N)cc3)C1=N2 [BPN-0026499] | 0.18 µM | 97.7% | 84.9% | >99% | 5.7 µM | 12.4 |
| Cc1cc2c(cc1C)C(=O)[C@]1(O)CCN(c3cccc(Cl)c3)C1=N2 [BPN-0026500] | 23 µM | 92.2% | 22.8% | >99% | – | NMII-sel |
| Cc1cc2c(cc1F)C(=O)[C@]1(O)CCN(c3ccc(C)c(Cl)c3)C1=N2 [BPN-0026606] | – | 85.9% | 4.1% | 95.5% | – | NMII-sel |
| Cc1ccc(N2CC[C@@]3(O)C(=O)c4cc(Cl)ccc4N=C23)cc1 [BPN-0026609] | 0.43 µM | – | – | – | 5.5 µM | 3.7 |
| Cc1ccc(N2CC[C@@]3(O)C(=O)c4cc(C)c(C(F)(F)F)cc4N=C23)cc1Cl [BPN-0026786] | – | 87.8% | 66.6% | 96.0% | – | NMII-sel |
| Cc1cccc(N2CC[C@@]3(O)C(=O)c4cc(C)c(C(F)(F)F)cc4N=C23)c1 [BPN-0026847] | – | 99.0% | 91.8% | >99% | – | NMII-sel |
| Cc1sc2c(c1C)C(=O)[C@]1(O)CCN(c3cccc(Br)c3)C1=N2 [BPN-0026853] | – | 91.2% | 88.2% | 90.2% | – | NMII-sel |
| O=C1c2cc(C(F)(F)F)ccc2N=C2N(c3ccc4ncsc4c3)CC[C@@]12O [BPN-0027219] | – | 46.2% | 3.8% | 98.3% | – | NMII-sel |
| O=C1c2c(sc3c2CCCC3)N=C2N(c3ccc4ncccc4c3)CC[C@@]12O [BPN-0027240] | – | 94.1% | 74.6% | 98.0% | – | NMII-sel |

From patent publication US20250163056A1, “NONMUSCLE MYOSIN II INHIBITORS” (The University of Florida Research Foundation, Inc., priority 2018, published 2025)
